Where “and” joins values, the source holds several entries; their conditions need not be identical. Equal values may be shown once.
Assays:
[1] = biological target: CDC7/DBF4 (Homo sapiens, UniProt O00311); assay: biochemical; settings: read-out: % enzyme activity, 1 μM; Run 1, Run 2
[2] = biological target: T1, PKCepsilon (Homo sapiens, UniProt Q02156); settings: 1 μM; Run 1, Run 2
T1 sequence (Q02156 1-737): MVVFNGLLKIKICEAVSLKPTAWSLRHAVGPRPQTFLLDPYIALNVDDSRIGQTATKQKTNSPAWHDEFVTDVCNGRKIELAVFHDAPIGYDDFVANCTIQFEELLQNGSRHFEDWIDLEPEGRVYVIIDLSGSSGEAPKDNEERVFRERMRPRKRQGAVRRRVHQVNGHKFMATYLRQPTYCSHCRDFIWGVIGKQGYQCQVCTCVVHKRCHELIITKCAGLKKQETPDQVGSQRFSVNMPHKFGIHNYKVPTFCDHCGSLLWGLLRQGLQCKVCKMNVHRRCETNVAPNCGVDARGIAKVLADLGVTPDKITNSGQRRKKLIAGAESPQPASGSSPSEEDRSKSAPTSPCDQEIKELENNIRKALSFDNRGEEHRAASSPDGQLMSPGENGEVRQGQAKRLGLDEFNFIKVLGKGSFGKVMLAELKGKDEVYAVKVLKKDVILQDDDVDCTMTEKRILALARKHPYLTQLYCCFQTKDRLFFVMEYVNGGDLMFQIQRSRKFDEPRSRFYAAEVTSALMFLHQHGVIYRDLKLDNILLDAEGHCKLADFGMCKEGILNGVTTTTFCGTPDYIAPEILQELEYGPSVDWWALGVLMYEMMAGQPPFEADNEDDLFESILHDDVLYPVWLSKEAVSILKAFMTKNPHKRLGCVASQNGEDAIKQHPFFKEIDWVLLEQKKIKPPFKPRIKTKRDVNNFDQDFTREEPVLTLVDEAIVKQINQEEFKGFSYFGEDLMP

[3] = biological target: FGFR3 (Homo sapiens, UniProt P22607); settings: 1 μM; Run 1, Run 2
[4] = biological target: KDR/VEGFR2 (Homo sapiens, UniProt P35968); settings: 1 μM; Run 1, Run 2
[5] = biological target: CAMKK1 (Homo sapiens, UniProt Q8N5S9); assay: biochemical; settings: read-out: % enzyme activity, 1 μM; Run 1, Run 2
[6] = biological target: FAK/PTK2 (Homo sapiens, UniProt Q05397); settings: 1 μM; Run 1, Run 2
[7] = biological target: SRPK1 (Homo sapiens, UniProt Q96SB4); assay: biochemical; settings: read-out: % enzyme activity, 1 μM; Run 1, Run 2
[8] = biological target: PYK2 (Homo sapiens, UniProt Q14289); assay: biochemical; settings: read-out: % enzyme activity, 1 μM; Run 1, Run 2
[9] = biological target: MAPKAPK3 (Homo sapiens, UniProt Q16644); settings: 1 μM; Run 1, Run 2
[10] = tested on: TNK1
[11] = biological target: T2, TAOK2/TAO1 (Homo sapiens, UniProt Q9UL54); settings: 1 μM; Run 1, Run 2
T2 sequence (Q9UL54 1-1235): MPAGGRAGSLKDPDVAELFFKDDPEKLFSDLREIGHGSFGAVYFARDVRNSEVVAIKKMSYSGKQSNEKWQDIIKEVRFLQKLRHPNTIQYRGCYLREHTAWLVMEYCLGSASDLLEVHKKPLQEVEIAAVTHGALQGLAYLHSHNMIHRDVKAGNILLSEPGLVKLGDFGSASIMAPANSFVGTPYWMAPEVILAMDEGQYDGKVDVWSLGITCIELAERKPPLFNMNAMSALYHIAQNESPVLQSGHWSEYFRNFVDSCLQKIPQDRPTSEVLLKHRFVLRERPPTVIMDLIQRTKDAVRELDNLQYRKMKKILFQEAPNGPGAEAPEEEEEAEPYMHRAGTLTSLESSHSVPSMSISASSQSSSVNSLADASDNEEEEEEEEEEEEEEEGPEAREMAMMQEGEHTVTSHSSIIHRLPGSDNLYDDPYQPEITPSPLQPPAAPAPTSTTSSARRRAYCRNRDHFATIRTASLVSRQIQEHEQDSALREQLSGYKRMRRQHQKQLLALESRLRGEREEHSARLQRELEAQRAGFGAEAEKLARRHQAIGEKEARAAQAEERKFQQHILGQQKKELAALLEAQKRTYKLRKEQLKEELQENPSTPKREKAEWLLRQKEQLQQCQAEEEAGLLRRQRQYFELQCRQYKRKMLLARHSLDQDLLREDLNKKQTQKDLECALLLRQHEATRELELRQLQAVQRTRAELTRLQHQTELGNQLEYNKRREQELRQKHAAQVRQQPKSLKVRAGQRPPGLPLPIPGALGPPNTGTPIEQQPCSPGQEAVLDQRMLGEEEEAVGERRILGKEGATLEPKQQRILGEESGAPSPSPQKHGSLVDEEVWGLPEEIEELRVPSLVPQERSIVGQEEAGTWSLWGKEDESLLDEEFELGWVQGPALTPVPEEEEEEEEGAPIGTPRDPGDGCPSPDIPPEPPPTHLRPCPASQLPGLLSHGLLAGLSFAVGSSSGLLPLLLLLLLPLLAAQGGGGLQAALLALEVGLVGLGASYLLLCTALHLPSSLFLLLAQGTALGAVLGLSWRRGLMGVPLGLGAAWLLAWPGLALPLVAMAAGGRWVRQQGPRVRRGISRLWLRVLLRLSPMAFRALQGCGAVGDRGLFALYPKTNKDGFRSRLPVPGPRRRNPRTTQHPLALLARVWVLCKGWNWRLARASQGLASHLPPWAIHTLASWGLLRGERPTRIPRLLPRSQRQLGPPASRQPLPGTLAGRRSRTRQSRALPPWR

[12] = biological target: CDK6/cyclin D1 (Homo sapiens, UniProt Q00534); assay: biochemical; settings: read-out: % enzyme activity, 1 μM; Run 1, Run 2
Sequence of CDK6/cyclin D1 (Q00534 whole entry): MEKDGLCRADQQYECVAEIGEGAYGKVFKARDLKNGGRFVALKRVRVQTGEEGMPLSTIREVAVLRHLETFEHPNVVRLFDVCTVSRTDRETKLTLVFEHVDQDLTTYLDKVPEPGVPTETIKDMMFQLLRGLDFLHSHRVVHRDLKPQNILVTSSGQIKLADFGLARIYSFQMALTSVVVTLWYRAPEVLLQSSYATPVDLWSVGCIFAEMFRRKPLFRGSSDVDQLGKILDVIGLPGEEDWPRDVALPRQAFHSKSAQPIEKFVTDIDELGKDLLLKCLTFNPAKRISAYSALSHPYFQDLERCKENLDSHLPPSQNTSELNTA
Sequence of CDK6/cyclin D1 (P24385 whole entry partner): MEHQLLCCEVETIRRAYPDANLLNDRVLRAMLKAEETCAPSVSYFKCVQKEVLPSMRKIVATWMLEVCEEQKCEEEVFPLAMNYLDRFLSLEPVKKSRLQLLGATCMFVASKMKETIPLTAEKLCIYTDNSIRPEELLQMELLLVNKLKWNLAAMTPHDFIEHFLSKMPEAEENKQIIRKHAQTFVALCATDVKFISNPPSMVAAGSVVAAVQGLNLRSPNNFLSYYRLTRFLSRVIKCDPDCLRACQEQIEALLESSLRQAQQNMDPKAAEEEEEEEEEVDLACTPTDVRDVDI

Sequence of PYK2 (Q14289 whole entry): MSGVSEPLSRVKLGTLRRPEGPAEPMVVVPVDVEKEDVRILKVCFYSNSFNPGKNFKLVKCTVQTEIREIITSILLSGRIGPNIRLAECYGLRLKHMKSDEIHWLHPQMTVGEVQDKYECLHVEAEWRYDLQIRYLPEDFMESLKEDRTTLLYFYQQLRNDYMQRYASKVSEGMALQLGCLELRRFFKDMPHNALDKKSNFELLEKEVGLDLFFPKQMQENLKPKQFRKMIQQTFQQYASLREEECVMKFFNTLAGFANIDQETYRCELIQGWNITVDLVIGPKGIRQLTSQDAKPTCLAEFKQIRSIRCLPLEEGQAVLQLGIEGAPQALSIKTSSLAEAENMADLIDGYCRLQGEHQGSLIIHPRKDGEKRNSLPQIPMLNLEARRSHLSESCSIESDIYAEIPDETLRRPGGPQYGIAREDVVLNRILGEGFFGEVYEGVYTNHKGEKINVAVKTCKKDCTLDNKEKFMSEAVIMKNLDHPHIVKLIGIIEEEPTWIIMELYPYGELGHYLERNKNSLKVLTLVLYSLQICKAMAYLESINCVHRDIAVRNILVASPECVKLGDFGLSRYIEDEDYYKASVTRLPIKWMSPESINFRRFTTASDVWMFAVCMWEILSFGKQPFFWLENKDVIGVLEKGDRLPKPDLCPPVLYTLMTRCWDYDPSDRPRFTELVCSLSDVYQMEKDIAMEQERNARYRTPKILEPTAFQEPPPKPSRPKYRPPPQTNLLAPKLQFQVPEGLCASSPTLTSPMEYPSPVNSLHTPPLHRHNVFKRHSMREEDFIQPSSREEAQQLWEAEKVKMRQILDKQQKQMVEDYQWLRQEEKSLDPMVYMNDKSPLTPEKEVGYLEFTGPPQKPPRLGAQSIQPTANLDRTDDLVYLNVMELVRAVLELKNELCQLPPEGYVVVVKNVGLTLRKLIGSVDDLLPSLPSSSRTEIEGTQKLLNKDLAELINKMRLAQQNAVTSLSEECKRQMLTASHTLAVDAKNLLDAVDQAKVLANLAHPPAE
Sequence of FGFR3 (P22607 23-806): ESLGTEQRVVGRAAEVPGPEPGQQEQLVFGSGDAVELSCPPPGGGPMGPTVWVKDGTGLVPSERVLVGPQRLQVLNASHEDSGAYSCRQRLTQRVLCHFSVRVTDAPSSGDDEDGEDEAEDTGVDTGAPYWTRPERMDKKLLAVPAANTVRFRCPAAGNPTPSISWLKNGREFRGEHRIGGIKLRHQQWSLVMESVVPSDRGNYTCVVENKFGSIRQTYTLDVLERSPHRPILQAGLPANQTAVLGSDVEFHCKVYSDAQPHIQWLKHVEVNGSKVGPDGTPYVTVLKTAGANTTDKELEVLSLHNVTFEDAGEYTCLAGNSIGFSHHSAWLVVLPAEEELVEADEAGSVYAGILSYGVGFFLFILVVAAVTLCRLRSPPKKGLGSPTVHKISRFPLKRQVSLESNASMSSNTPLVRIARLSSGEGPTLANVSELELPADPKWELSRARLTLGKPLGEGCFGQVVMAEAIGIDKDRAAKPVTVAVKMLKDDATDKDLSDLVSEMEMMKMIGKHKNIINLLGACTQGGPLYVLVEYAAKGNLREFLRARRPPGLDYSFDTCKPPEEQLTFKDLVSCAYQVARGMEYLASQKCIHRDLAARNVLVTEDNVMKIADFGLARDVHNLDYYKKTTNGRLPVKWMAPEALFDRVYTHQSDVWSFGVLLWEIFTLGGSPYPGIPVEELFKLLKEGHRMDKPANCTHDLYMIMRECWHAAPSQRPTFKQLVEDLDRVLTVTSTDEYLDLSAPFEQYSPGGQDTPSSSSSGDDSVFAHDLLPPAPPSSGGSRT
Sequence of SRPK1 (Q96SB4 whole entry): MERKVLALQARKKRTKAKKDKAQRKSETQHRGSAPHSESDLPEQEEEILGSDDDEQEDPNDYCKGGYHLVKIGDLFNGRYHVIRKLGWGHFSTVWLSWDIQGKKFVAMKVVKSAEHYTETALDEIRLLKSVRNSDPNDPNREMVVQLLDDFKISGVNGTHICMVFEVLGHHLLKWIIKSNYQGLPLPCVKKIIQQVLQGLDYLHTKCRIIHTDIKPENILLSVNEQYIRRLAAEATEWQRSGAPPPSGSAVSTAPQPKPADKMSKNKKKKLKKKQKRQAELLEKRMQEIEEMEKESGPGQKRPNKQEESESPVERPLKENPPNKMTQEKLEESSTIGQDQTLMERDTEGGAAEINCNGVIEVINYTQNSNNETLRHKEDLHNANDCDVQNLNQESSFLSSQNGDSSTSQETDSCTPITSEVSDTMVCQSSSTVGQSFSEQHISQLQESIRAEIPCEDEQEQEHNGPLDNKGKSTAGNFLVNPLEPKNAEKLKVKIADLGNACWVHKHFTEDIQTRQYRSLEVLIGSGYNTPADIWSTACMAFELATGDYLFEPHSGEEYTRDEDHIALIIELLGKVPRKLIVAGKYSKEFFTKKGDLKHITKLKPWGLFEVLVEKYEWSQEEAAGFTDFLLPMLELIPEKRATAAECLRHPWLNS
Sequence of CAMKK1 (Q8N5S9 whole entry): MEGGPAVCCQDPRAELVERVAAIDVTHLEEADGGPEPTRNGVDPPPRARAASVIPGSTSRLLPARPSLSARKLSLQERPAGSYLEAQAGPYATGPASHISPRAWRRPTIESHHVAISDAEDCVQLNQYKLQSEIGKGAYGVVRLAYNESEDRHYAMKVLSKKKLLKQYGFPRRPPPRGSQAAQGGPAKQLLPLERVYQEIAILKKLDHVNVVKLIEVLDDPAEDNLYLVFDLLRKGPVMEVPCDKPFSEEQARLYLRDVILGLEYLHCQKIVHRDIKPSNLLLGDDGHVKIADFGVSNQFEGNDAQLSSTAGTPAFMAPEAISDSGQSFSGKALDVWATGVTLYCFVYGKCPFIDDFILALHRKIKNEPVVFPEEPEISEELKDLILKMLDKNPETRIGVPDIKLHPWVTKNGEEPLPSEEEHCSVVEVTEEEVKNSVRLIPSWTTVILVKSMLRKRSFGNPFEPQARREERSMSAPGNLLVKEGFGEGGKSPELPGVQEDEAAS
Sequence of CDC7/DBF4 (O00311 whole entry): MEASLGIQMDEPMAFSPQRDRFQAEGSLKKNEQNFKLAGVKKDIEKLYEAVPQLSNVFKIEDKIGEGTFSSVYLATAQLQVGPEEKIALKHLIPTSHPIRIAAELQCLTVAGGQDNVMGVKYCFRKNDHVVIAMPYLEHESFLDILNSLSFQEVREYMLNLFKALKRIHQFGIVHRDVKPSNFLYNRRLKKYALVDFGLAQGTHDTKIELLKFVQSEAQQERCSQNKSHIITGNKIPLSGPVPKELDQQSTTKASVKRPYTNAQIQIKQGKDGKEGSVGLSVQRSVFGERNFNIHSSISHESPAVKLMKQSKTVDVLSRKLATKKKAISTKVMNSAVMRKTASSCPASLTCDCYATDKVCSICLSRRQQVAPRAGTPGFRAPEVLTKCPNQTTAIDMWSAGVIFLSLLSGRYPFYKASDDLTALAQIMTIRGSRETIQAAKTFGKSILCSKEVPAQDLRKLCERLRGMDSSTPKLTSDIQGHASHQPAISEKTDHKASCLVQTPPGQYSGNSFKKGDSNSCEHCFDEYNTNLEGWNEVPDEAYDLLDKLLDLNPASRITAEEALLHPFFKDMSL
Sequence of CDC7/DBF4 (Q9UBU7 whole entry partner): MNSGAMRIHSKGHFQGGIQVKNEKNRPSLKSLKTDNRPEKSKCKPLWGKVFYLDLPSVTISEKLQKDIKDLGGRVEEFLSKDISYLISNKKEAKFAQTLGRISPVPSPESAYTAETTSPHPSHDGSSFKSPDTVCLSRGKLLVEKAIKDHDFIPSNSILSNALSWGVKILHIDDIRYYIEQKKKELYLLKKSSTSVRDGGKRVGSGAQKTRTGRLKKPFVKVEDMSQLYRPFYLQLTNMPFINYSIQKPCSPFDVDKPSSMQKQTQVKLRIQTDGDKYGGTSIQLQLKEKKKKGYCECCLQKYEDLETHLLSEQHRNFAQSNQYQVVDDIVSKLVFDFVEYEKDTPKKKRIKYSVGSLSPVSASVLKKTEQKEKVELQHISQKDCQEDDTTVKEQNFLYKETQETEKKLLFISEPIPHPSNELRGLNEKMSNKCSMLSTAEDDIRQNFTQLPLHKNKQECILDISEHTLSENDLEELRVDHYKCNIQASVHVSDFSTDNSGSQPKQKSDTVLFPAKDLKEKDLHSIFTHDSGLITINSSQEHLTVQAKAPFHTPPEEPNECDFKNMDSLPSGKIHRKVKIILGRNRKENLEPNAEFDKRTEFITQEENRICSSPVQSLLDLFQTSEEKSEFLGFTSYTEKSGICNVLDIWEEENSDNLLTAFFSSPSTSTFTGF

| Structure (SMILES) | remaining activity at 1 µM [1] [%] | % enzyme activity [2] [%] | % enzyme activity [3] [%] | % enzyme activity [4] [%] | remaining activity at 1 µM [5] [%] | % enzyme activity [6] [%] | remaining activity at 1 µM [7] [%] | remaining activity at 1 µM [8] [%] | % enzyme activity [9] [%] | % enzyme activity at 1 μM [10] | % enzyme activity [11] [%] | remaining activity at 1 µM [12] [%] |
| --- | --- | --- | --- | --- | --- | --- | --- | --- | --- | --- | --- | --- |
| COc1cc(-c2cncc(-c3ccc(N4CCN(C)CC4)cc3)c2C)cc(F)c1C(N)=O [Compound 26a, 2-Fluoro-6-methoxy-4-(4-methyl-5-(4-(4-methylpiperazin-1-yl)phenyl)pyridin-3-yl)benzamide] | 92.2 | 96.64 | 100.98 | 92.99 | 94.7 | 94.56 | 112 | 85.9 | 99.20 | 105% and 99.5% | 87.58 | 100 |
| COc1cc(-c2cncc(-c3ccc(N4C[C@@H](C)N(C)[C@@H](C)C4)cc3)c2C)cc(F)c1C(N)=O [Compound 26c, 2-Fluoro-6-methoxy-4-(4-methyl-5-(4-((3R,5S)-3,4,5-trimethylpiperazin-1-yl)phenyl)pyridin-3-yl)benzamide] | 94.2 | 105.76 | 102.08 | 85.59 | 94 | 97.12 | 89.3 | 88.6 | 96.39 | 98.6% and 98.2% | 99.37 | 95.9 |

Source: publication PMC8213057, “Targeting ALK2: An Open Science Approach to Developing Therapeutics for the Treatment of Diffuse Intrinsic Pontine Glioma” (Journal of Medicinal Chemistry, 2020)
